In patent publication US9464106B2, “Oligonucleotides useful for detecting and analyzing nucleic acids of interest” (Exiqon A/S, priority 2002, dated 2016):
l = locked nucleic acid (LNA); [5mC] = 5-methylcytosine; d = 2'-deoxy (DNA)

System: yeast HSP78 (YDR258C) sequence
Experiment: Duplex melting temperatures of HSP78 25-mer capture probes (UV spectrophotometer)
Settings: 25-mer capture probe duplex with complementary target; design PM = perfectly matched, MM = single mismatch; DNA, LNA_T (T) or LNA_TC (TC) substituted

Substance	Average duplex melting temp. [°C]
12819 (DNA CACTCTAACAGTTTCGCCGTTTCTA; sugars from the 5' end ldldldddldddldddlddldllld, [5mC] at 1, 3, 5, 9, 17, 23, backbone not given here; further chemistry not fully specified) [compound 12819]	81.9
12718 (DNA GTTGCCATGGAGATCAAAATCTGTC; sugars from the 5' end dllddddldddddddddddldldld, backbone not given here) [compound 12718]	69.2
12755 (DNA TTGGAAACATCGGGGTGCGCTTTTT; DNA, backbone not given here; further chemistry not fully specified) [compound 12755]	70.8
12734 (DNA CCGATTAAACGACAGACAGTATGCT; sugars from the 5' end llddlldddlddddddlddldldld, [5mC] at 1, 2, 10, 17, 24, backbone not given here) [compound 12734]	70.2
12783 (DNA ATCAAATAGGAATTCAGCTAAAGCC; DNA at ACG, LNA at T, backbone not given here; further chemistry not fully specified) [compound 12783]	66.3
12814 (DNA GTTGCCATGGAGTTCAAAATCTGTC; sugars from the 5' end dlddlldlddddldlddddllddld, [5mC] at 5, 6, 15, 21, backbone not given here; further chemistry not fully specified) [compound 12814]	78.3
12818 (DNA TTTTTCGGCCAAACGATCTTGAATT; sugars from the 5' end ldldllddlldddldddldldddld, all C 5-methyl, backbone not given here; further chemistry not fully specified) [compound 12818]	77.8
12726 (DNA ATTGACCTCAAATCTTTCTTGGATA; sugars from the 5' end dllddddlddddddllldlldddld, backbone not given here) [compound 12726]	65.1
12721 (DNA ATAAAGCTGGCAAAAGGTCTCTTTT; sugars from the 5' end dldddddldddddddddldldllld, backbone not given here) [compound 12721]	67.2
12762 (DNA ATAGCAGCAATGGCCTCGTCTTGGC; DNA, backbone not given here; further chemistry not fully specified) [compound 12762]	72.7
12736 (DNA GACCTAAGAACAAAAAGCTGGCAAT; sugars from the 5' end ddllldddddlddddddllddlddd, all C 5-methyl, backbone not given here) [compound 12736]	71.4
12749 (DNA AAAACGACAGCAAAAGGCTTTCTTC; sugars from the 5' end ddddlddlddlddddddlldlldld, [5mC] at 5, 8, 11, 18, 22, backbone not given here) [compound 12749]	72
12796 (DNA TCAATGGCCTTGCACCATATAATTG; DNA at ACG, LNA at T, backbone not given here; further chemistry not fully specified) [compound 12796]	74
12815 (DNA AGACGTACAGCATCAGAAATAGCAG; DNA at AG, LNA at CT, all C 5-methyl, backbone not given here; further chemistry not fully specified) [compound 12815]	81.9
12813 (DNA TCAGTTAGCCAATCCTTCGCTTCAT; sugars from the 5' end llddlddddlddldldlldlddldd, [5mC] at 2, 10, 15, 18, 20, 23, backbone not given here; further chemistry not fully specified) [compound 12813]	81.8
